Values joined by “and” are separate entries in the source; they are usually repeats but may differ in a detail not shown here. Equal values may be shown once.
Assays:
[1] = molecular target: T1, OAT3 (Homo sapiens, UniProt Q8TCC7); test: Substrate of OAT3, uptake in HEK293 cells; conditions: probe substrate 1 μM
T1 sequence (Q8TCC7 1-542): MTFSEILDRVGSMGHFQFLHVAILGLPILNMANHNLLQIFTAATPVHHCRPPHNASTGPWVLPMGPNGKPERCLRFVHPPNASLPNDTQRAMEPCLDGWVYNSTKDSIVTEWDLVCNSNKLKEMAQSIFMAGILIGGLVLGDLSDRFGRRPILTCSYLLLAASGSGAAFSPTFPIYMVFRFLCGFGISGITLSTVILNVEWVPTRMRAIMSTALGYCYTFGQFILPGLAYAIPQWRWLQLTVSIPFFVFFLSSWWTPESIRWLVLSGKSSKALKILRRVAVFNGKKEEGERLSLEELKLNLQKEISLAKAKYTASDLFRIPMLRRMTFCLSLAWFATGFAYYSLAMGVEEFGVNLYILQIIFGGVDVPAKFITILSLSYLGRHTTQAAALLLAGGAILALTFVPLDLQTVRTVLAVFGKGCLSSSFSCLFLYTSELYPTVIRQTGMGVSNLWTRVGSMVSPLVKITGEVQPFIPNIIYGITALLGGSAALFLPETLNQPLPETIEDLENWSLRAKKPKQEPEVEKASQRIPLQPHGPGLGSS
Text: (§1) Vector-transfected HEK cells were used as a control.

[2] = molecular target: MATE2K (Homo sapiens, UniProt Q86VL8); test: MATE2K inhibition, metformin uptake in transfected HEK cells; conditions: no inhibitor
MATE2K, sequence (Q86VL8 1-566 isoform Q86VL8-3): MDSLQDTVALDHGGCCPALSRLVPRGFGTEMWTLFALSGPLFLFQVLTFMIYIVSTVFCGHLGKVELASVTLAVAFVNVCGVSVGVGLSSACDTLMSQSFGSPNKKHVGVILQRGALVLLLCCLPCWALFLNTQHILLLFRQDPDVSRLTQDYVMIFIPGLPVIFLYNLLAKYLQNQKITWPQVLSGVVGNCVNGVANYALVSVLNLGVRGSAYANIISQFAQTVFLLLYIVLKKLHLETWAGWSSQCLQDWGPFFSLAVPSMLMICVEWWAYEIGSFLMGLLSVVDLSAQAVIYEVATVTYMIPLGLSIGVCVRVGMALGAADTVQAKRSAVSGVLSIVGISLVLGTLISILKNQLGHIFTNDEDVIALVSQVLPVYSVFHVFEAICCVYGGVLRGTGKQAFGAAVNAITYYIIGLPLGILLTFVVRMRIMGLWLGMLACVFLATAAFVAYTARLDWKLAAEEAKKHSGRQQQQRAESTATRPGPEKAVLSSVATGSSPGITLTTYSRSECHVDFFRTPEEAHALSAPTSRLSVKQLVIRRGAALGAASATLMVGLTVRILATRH

[3] = molecular target: T2, MATE1 (Homo sapiens, UniProt Q96FL8); test: MATE1 inhibition, metformin uptake in transfected HEK cells; conditions: no inhibitor
T2 sequence (Q96FL8 1-570): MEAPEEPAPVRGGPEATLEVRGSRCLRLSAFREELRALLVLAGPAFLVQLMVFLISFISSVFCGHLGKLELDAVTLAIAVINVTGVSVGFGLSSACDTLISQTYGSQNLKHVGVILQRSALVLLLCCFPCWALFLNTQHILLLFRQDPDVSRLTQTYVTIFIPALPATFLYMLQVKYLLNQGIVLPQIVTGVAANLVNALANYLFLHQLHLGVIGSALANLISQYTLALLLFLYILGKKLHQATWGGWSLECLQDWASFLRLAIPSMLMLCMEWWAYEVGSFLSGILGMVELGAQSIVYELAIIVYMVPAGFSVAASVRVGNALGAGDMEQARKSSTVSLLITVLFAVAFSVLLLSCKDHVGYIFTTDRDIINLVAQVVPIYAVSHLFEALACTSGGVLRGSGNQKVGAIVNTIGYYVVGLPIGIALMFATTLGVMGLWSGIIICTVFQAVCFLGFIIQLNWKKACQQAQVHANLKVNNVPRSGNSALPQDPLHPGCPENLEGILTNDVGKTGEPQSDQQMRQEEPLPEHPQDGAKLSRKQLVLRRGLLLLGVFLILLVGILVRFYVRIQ

[4] = molecular target: OATP1B3 (Homo sapiens, UniProt Q9NPD5); test: OATP1B3 inhibition, atorvastatin uptake in transfected HEK cells; conditions: for Influx Rate of […] Atorvastatin (5 min): OATP1B3-HEK Cells
OATP1B3, sequence (Q9NPD5 whole entry): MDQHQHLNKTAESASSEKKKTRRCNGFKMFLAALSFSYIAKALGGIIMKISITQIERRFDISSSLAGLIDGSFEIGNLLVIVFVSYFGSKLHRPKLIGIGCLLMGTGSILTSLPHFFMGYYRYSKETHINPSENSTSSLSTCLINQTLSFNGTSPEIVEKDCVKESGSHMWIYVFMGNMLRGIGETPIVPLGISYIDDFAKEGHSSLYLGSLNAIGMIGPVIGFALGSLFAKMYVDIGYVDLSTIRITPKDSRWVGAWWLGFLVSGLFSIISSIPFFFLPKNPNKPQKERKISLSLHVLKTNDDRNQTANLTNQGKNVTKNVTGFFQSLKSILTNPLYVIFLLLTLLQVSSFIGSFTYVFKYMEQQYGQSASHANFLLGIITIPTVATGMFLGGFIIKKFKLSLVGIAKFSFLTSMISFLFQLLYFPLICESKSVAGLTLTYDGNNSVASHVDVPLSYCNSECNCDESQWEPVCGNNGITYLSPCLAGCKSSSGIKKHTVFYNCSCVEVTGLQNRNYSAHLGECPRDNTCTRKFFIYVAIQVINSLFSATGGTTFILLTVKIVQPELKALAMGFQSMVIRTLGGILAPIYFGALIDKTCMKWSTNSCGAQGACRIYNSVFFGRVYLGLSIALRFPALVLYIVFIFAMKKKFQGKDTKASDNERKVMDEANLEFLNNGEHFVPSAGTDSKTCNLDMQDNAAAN

[5] = molecular target: OATP1B1 (Homo sapiens, UniProt Q9Y6L6); test: OATP1B1 inhibition, atorvastatin uptake in transfected HEK cells
OATP1B1, sequence (Q9Y6L6 whole entry): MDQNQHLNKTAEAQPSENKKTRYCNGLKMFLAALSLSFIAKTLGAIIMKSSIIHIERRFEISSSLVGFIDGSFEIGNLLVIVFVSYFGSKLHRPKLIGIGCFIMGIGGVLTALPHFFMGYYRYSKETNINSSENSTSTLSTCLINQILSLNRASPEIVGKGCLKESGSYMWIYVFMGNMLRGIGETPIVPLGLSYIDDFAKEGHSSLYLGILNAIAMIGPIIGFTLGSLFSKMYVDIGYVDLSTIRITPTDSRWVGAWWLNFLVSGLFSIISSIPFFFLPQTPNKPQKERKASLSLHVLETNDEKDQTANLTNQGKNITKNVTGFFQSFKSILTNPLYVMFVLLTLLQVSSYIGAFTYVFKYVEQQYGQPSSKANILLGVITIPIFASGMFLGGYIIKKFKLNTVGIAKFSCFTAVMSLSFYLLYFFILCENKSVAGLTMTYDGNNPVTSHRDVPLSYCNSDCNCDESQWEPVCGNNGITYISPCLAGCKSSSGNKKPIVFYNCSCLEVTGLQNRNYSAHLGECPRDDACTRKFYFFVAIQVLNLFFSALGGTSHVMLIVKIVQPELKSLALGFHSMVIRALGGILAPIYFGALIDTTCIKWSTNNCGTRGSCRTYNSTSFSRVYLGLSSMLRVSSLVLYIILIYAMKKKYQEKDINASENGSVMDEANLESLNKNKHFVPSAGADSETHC

[6] = molecular target: T3, OCT2 (Homo sapiens, UniProt O15244); test: OCT2 inhibition, MPP+ uptake in transfected HEK cells; conditions: no inhibitor
T3 sequence (O15244 1-555): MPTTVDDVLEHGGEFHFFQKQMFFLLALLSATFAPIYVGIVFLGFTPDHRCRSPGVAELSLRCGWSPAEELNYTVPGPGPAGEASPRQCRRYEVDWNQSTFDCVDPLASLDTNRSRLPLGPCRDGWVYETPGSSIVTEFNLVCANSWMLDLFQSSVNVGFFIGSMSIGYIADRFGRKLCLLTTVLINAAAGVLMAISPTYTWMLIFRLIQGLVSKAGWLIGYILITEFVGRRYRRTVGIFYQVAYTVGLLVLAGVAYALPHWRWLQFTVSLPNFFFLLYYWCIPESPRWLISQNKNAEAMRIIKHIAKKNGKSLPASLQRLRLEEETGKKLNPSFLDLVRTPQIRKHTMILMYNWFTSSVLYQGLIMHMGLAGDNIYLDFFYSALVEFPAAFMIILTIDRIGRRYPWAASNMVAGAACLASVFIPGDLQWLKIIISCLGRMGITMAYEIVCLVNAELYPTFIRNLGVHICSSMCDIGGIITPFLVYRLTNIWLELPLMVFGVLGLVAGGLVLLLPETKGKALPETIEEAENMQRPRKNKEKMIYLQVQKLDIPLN

[7] = molecular target: T3, OCT2; test: Substrate of OCT2, uptake in HEK293 cells; conditions: probe substrate 1 μM
Text: as §1

[8] = test system: human hepatocytes; test: Cell viability after CYP induction treatment (MTS); conditions: controls at induction concentrations
Method: Plateable and inducible cryopreserved human hepatocytes were thawed and isolated in human hepatocyte thawing medium. […] After attachment (4 hours), the medium was changed to fresh hepatocyte culture medium for overnight cell recovery. […] A positive control (100 μM chlorpromazine) was treated in parallel.
After the CYP induction treatment, the cells were used for cell viability assay. The viability of cells (expressed as the percentage of MTS absorbance relative to vehicle control) was measured as described herein.

[9] = test system: CYP2B6 mRNA; test: CYP2B6 mRNA induction in human hepatocytes (qPCR); conditions: phenobarbital 1,000 μM, flumazenil 10 μM
Method: Plateable and inducible cryopreserved human hepatocytes were thawed and isolated in human hepatocyte thawing medium.
All experiments were performed in triplicate.
After induction treatment, CYP mRNA expression was measured by qPCR. Total RNA was isolated from the treated cells using the RNeasy® mini kit (Qiagen, Valencia, CA, USA) and treated with RNase-free DNase (Qiagen) following the manufacturer's protocols. The concentration of RNA was determined using a Qubit® Fluorometer with a Qubit RNA HS assay kit (Invitrogen). cDNA was synthesized from up to […] of the total RNA harvested from the cells using a QuantiTect® RT kit (Qiagen). Analysis of CYP gene expression by qPCR (Table 3) was performed using the LightCycler® 480 II System (Roche Diagnostics Corporation, Indianapolis, IN, USA).
Relative mRNA was expressed as the fold-increase calculated from the normalized mRNA level (2^−ΔΔCt) relative to vehicle control. The percentage of mRNA fold-increase relative to positive control was calculated using the following equation:
% Induction relative to positive control=100×(mRNATA−mRNAvehicle)/(mRNApositive control−mRNAvehicle)

[10] = Vector Control Cells, replicates

C[C@]12CC[C@@H]3c4ccc(OS(=O)(=O)O)cc4CC[C@H]3[C@@H]1CCC2=O [3H-estrone-3-sulfate]
Fold uptake over the vector control by OAT3 [1]: 25.9 fold

CN(C)C(=N)N=C(N)N [metformin]
Net Influx Rate of 50 μM Metformin ([2]; MATE2K): 36.1 pmol/mg protein/minute
Influx rate ratio (MATE2K over vector control) [2]: 2.70
Influx Rate of 50 μM Metformin (10 min) ([2]; MATE2K HEK Cells, Average): 57.4 pmol/mg protein/minute
Influx Rate of 50 μM Metformin (10 min) ([2]; MATE2K HEK Cells, replicates): 54.5 pmol/mg protein/minute and 60.2 pmol/mg protein/minute
Influx Rate Ratio of metformin ([2]; MATE2K over vector control): 2.70
Influx Rate of 50 μM Metformin (10 min) ([2]; Vector Control Cells, Average): 21.3 pmol/mg protein/minute
Influx Rate of 50 μM Metformin (10 min) [2, 10]: 19.6 pmol/mg protein/minute and 22.8 pmol/mg protein/minute
Net Influx Rate of 50 μM Metformin ([3]; MATE1): 572 pmol/mg protein/minute
Influx rate ratio (MATE1 over vector control) [3]: 43.4
Influx Rate of 50 μM Metformin (10 min) ([3]; MATE1-HEK Cells, Average): 586 pmol/mg protein/minute
Influx Rate of 50 μM Metformin (10 min) ([3]; MATE1-HEK Cells, replicates): 515 pmol/mg protein/minute and 656 pmol/mg protein/minute
Influx Rate Ratio of metformin ([3]; MATE1 over vector control): 43.4
Influx Rate of 50 μM Metformin (10 min) ([3]; Vector Control Cells, Average): 13.5 pmol/mg protein/minute
Influx Rate of 50 μM Metformin (10 min) [3, 10]: 15.6 pmol/mg protein/minute and 11.3 pmol/mg protein/minute

CO[C@H]1/C=C/O[C@@]2(C)Oc3c(C)c([O-])c4c(O)c(cc(O)c4c3C2=O)NC(=O)/C(C)=C\C=C\[C@H](C)[C@H](O)[C@@H](C)[C@@H](O)[C@@H](C)[C@H](OC(C)=O)[C@@H]1C.[Na+] [RSV, rifamycin SV]
Influx Rate of […] Atorvastatin (5 min) ([4]; 10 μM RSV, Average): 0.573 pmol/mg protein/minute
Influx Rate of […] Atorvastatin (5 min) ([4]; 10 μM RSV, replicates): 0.576 pmol/mg protein/minute and 0.571 pmol/mg protein/minute
Net Influx Rate of […] Atorvastatin ([4]; OATP1B3, 10 μM RSV): 0.0551 pmol/mg protein/minute
Percentage Inhibition ([4]; OATP1B3, 10 μM RSV): 98.1%
% inhibition of atorvastatin uptake ([4]; known inhibitor): 98.1%
Influx Rate of […] Atorvastatin (5 min) ([5]; 10 μM RSV, OATP1B1-HEK Cells, Average): 0.702 pmol/mg protein/minute
Influx Rate of […] Atorvastatin (5 min) ([5]; 10 μM RSV, OATP1B1-HEK Cells, replicates): 0.724 pmol/mg protein/minute and 0.681 pmol/mg protein/minute
Influx Rate of […] Atorvastatin (5 min) ([5]; 10 μM RSV, Vector Control Cells, Average): 0.518 pmol/mg protein/minute
Influx Rate of […] Atorvastatin (5 min) ([5]; 10 μM RSV, Vector Control Cells, replicates): 0.496 pmol/mg protein/minute and 0.541 pmol/mg protein/minute
Net Influx Rate of […] Atorvastatin ([5]; OATP1B1, 10 μM RSV): 0.184 pmol/mg protein/minute
Percentage Inhibition ([5]; OATP1B1, 10 μM RSV): 96.7%
% inhibition of atorvastatin uptake ([5]; known inhibitor): 96.7%

C[n+]1ccc(-c2ccccc2)cc1 [MPP+, 1-methyl-4-phenylpyridinium]
Net Influx Rate of 5 μM MPP+ ([6]; OCT2): 847 pmol/mg protein/minute
Influx rate ratio (OCT2 over vector control) [6]: 48.9
Influx Rate of 5 μM MPP+ (2 min) ([6]; OCT2-HEK Cells, Average): 864 pmol/mg protein/minute
Influx Rate of 5 μM MPP+ (2 min) ([6]; OCT2-HEK Cells, replicates): 896 pmol/mg protein/minute and 833 pmol/mg protein/minute
Influx Rate Ratio of MPP+ ([6]; OCT2 over vector control): 48.9
Influx Rate of 5 μM MPP+ (2 min) ([6]; Vector Control Cells, Average): 17.7 pmol/mg protein/minute
Influx Rate of 5 μM MPP+ (2 min) [6, 10]: 19.0 pmol/mg protein/minute and 16.3 pmol/mg protein/minute

CN(C)C(N)=NC(=N)N [14C-metformin]
Fold uptake over the vector control by OCT2 [7]: 43.7 fold

CCC1(c2ccccc2)C(=O)NC(=O)NC1=O [Phenobarbital, phenobarbital]
% MTS absorbance relative to vehicle control ([8]; donor 1): 97.7%
Formazan absorbance, mean (n=6) ([8]; donor 1): 0.417
% MTS absorbance relative to vehicle control ([8]; donor 2): 98.8%
Formazan absorbance, mean (n=6) ([8]; donor 2): 0.504
% MTS absorbance relative to vehicle control ([8]; donor 3): 108%
Formazan absorbance, mean (n=6) ([8]; donor 3): 0.320
% induction relative to positive control ([9]; donor 1): 100%
CYP2B6 mRNA fold-increase, mean ([9]; donor 1): 21.8 fold
% induction relative to positive control ([9]; donor 2): 100%
CYP2B6 mRNA fold-increase, mean ([9]; donor 2): 39.6 fold
% induction relative to positive control ([9]; donor 3): 100%
CYP2B6 mRNA fold-increase, mean ([9]; donor 3): 7.36 fold

From patent US20240139211A1, “METHODS AND COMPOSITIONS FOR TREATING AMYOTROPHIC LATERAL SCLEROSIS” (Amylyx Pharmaceuticals, Inc., priority 2022, published 2024)
